Experimental data: patent publication US20080124404A1 (priority 2006, published 2008)
Entries after “also recorded” stand apart in the source; their conditions may differ.

How the values were obtained:
DNA = conditions: cited from earlier work
LDLR mRNA [1] = assay: Hepatic LDLR mRNA expression in HFHC-fed hamsters (quantitative real-time RT-PCR); format: in vivo, Golden Syrian hamsters; conditions: BBR 1.8 mg/d, end of 24-day treatment, n=6, p<0.0001
[2] = 32 hypercholesterolemic patients, oral, 1 g daily, 3 months; cited from earlier work
ERK [3] = assay: Western blot of phosphorylated ERK in HepG2 cells; format: cell-based, human; conditions: HepG2, BBR, HDT or CND 20 μg/ml, 2 h
LDLR mRNA [4] = assay: LDLR mRNA stability under actinomycin D in HepG2 cells (real-time RT-PCR); format: cell-based, human; conditions: HepG2, actinomycin D 5 μg/ml 30 min before, BBR or CND 15 μg/ml, 4 h
LDLR mRNA [5] = assay: Real-time quantitative RT-PCR of LDLR mRNA expression in HepG2 cells; format: cell-based, human; conditions: HepG2, 8 h
HepG2 cells = assay: BBR uptake assay, intracellular fluorescence by FACS in HepG2 cells; conditions: HepG2, 5 min incubation, BBR 15 μg/ml
LDLR mRNA [6] = assay: Northern blot analysis of LDLR mRNA expression in HepG2 cells; format: cell-based, human; conditions: each alkaloid 20 μg/ml, 8 h
Procedure: . The membrane was stripped and hybridized to a human GAPDH probe. The figure shown is representative of 3 separate studies.
FIG. 2 illustrates the comparison of dose-dependent effects of CND and BBR on LDLR mRNA expression. HepG2 cells were treated with CND or BBR for 8 h at the indicated concentrations and total RNA was isolated for analysis of LDLR mRNA and GAPDH mRNA expression by northern blot (FIG. 2, Panel A) and real-time PCR assays (FIG. 2, Panel B).
(§1) Quantitation of LDLR mRNA expression by northern blot analysis and real-time PCR. Isolation of total RNA and analysis of LDLR and GAPDH mRNA by northern blot were performed as previously described (Liu, J et al. J. Lipid Res. 1997, 38: 2035-2048). Differences in hybridization signals of northern blots were quantitated by a PhosphoImager. For quantitative real-time PCR assays, the reverse transcription was conducted with random primers using M-MLV (Promega) at 37° C. for 1 h in a volume of 25 u.1 containing 1 μg of total RNA. Real-time PCR was performed on the cDNA using ABI Prism 7900-HT Sequence Detection System and Universal MasterMix. The human and hamster LDLR and GAPDH Pre-Developed TaqMan Assay Reagents (Applied Biosystems) were used to assess the mRNA expressions in HepG2 and in hamster livers. The MDR1 mRNA expression in HepG2 cells was assayed similarly using the Pre-Developed probes from Applied Biosystems.
. HPLC/UV-DAD spectroscopic comparisons with standard solutions were used to confirm the presence of BBR, CND, HDT, and HDTN, as well as the absence of PMT. Concentrations of CND and HDT in sample extracts were determined using a single-point calibration and concentrations of BBR in sample extracts were calculated using a standard curve. The identities of BBR, CND, and HDT in extracts were verified further by LC-MS analysis. […]. […]. The results of northern blots were independently confirmed by real-time quantitative RT-PCR (FIG. 1C). […]. […].

[7] = Body weight, food intake and adverse effects in HFHC-fed hamsters; format: in vivo, Golden Syrian hamsters; conditions: 24 day treatment, control animals increased by 10%
Procedure: . The body weight of hamsters under a HFHC diet in untreated and drug-treated animals at indicated doses were monitored on alternate days (FIG. 11, Panel A). The food intake within 24 h period were measured 2-3 times a week throughout the entire experiment (FIG. 11, Panel B). The data are means±S.D. of 3 cages per group.
Goldenseal in vivo studies. 42 male Golden Syrian hamsters at 6-8 weeks of age were purchased from the Charles River Laboratories and were housed in cages (3 animals/cage) in an air-conditioned room with a 12 h light cycle. Animals had free access to autoclaved water and food. After one week on a regular rodent chow diet, 36 hamsters were switched to a rodent HFHC diet containing 1.25% cholesterol and 2.2% fat (Product # D12108, Research Diet, Inc., New Brunswick, N.J.) and 6 hamsters were fed a control normal diet containing 0.37% fat and no cholesterol (Product # D12102, Research Diet, Inc.). […]. Berberine Chloride was dissolved in the same vehicle solution. Four hours after the last drug treatment, all animals were sacrificed. Blood samples were collected through cardiac puncture and were analyzed for liver function, kidney function, and blood chemistry at DEXX Laboratories (Palo Alto, Calif.). […] After staining, tissue sections were evaluated by a veterinary pathologist and an experienced scientist independently. […]

ERK [8] = assay: Western blot of phosphorylated ERK in hamster liver; format: in vivo, Golden Syrian hamsters; conditions: pooled liver samples per treatment group (n=9), HFHC hamsters
[9] = Measurement of hepatic cholesterol and TG in HFHC-fed hamsters; conditions: BBR 1.8 mg/animal/d
[10] = target: MDR1 transporter (pgp-170) (Homo sapiens, UniProt P08183)
Sequence of MDR1 transporter (pgp-170) (P08183 whole entry): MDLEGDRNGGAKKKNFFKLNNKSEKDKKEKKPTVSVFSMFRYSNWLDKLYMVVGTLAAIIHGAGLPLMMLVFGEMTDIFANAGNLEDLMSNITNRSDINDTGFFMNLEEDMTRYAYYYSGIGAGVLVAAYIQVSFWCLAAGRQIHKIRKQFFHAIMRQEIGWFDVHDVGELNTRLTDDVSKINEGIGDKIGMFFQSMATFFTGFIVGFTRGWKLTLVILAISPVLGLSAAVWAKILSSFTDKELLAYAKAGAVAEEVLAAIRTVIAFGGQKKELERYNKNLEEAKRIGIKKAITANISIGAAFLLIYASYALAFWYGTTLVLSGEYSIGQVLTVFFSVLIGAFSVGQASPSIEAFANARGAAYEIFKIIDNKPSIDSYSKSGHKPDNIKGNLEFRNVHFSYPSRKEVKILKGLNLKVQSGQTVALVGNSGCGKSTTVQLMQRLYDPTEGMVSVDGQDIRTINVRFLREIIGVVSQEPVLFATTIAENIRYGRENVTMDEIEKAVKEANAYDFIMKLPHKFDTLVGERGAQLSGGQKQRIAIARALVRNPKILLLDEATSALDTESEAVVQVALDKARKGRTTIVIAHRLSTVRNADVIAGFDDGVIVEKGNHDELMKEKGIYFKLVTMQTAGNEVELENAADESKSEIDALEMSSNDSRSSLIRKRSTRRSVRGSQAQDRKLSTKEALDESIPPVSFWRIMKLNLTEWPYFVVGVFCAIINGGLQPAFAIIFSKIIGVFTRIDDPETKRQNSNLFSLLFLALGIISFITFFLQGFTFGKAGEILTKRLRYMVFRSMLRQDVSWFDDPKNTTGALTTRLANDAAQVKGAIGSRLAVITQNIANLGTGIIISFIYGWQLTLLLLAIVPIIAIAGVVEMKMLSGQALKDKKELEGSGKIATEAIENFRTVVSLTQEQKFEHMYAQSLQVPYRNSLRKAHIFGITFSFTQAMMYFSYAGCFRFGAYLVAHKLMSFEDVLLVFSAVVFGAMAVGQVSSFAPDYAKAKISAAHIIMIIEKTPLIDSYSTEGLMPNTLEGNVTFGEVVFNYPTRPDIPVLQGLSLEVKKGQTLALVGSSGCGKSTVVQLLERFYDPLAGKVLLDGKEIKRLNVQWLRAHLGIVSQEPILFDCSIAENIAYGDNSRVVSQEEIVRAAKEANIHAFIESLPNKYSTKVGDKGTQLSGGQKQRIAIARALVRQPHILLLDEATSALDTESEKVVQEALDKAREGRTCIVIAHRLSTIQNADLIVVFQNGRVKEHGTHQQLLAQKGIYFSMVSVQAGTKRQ

LDLR promoter = LDLR promoter dual luciferase reporter assay (pLDLR234Luc) in HepG2 cells; format: cell-based, human; conditions: 8 h
Procedure: FIG. 1E: Analysis of LDLR promoter activity: HepG2 cells were cotransfected with pLDLR234Luc and a normalizing vector pRL-SV40. […] Firefly luciferase and renilla luciferase activities were measured. The data represent normalized LDLR promoter activity.
Transient transfection and dual luciferase reporter assays. HepG2 cells were transfected with plasmid DNA (100 ng/well) by using FuGENE 6 transfection reagent. The DNA ratio of pLDLR234Luc (Li, C et al. J. Biol. Chem. 1999, 274: 6747-6753) to renilla luciferase reporter pRL-SV40 was 90:10. Twenty h after transfection, medium was changed to 0.5% FBS and drugs were added for 8 h prior to cell lysis. The luciferase activity in cell lysate was measured using Dual Luciferase Assay System obtained from Promega. Triplicate wells were assayed for each transfection condition.

LDLR mRNA [11] = assay: LDLR mRNA expression with MDR1 blocked by verapamil or MDR1 siRNA in HepG2 cells (real-time PCR); format: cell-based, human
Procedure: as §1, with “Isolation of total RNA and analysis of LDLR and GAPDH mRNA by northern blot were performed as previously described (Liu, J et al. J. Lipid Res. 1997, 38: 2035-2048).” left out
Small interference RNA (siRNA) transfection.

liver cells = assay: Cell survival by MTT (Cell Proliferation Kit I); format: cell-based; conditions: different concentrations, 18 h
Procedure: The toxicity of CND and BBR were compared using a cell-based assay. Cell survival rate under drug treatments were determined by Cell Proliferation Kit I (MTT) obtained from Roche Applied Sciences (Indianapolis, Ind.). Cells were seeded in 96-well plates at a density of 5×10^3 cells/well/ in 100 μl medium supplemented with 10% FBS at 37° C. and 5% CO2. After 24 h, cells were incubated with fresh medium containing different concentrations of BBR or CND for 18 h. At the end of drug treatment, 10 μl of MTT labeling reagent per well was added to cells to reach a concentration of 0.5 mg/ml. After a 4 h-reaction, 100 μl of solubilization solution was added to each well and the plate was incubated at 37° C. overnight. The sample spectraphotometrical absorbance was measured by a microplate reader at the wavelength of 550 nm. The reading of sample without drug treatment was defined as 100% survival and readings from drug-treated samples were plotted relative to that value. Quadruple wells were used in each culture condition.

MDR1 = MDR1 (Homo sapiens, UniProt P08183); assay: MDR direct dye efflux assay with DiOC2(3) in HepG2 cells; conditions: HepG2, co-incubation 2 h, CND 15 μg/ml
Sequence of MDR1 (P08183 whole entry): as above
Procedure: MDR direct dye efflux assay. The MDR Direct Dye Efflux Assay kit (Cat. No. ECM910, Chemicon International Inc., Temecula, Calif.) was used to measure MDR1 activity. HepG2 cells seeded in 6-well culture plates were incubated in efflux buffer (RPMI+2% BSA) and 1 μg/ml of DiOC2(3) in the absence of presence of tested compounds at 37° C. for 2 h.

For `COc1ccc2cc3[n+](cc2c1OC)CCc1cc2c(cc1-3)OCO2` [BBR, berberine], which DNA binding (DNA) is on record?
The DNA binding was “strong DNA binding affinities”.

What about the “increase in hepatic LDLR mRNA expression” value (LDLR mRNA [1]) of the same molecule?
The value was 3.7 fold.

And the “reduction of LDL-c” value [2]?
Its value is 25%.

What about the “reduction of plasma total cholesterol (TC)” value [2] of the same molecule?
The value was 29%.

What about the “reduction of triglyceride (TG)” value [2] of the same molecule?
Its value is 35%.

And the side effects [2]?
The side effects was “without side effects”.

What about the ERK phosphorylation (ERK [3]) of the same molecule?
The ERK phosphorylation was “attributable to CND and BBR”.

What about the “LDLR mRNA increase compared to control under transcriptional suppression” value (LDLR mRNA [4]) of the same molecule?
The value was about 2.5 fold.

And the “increase in LDLR mRNA expression” value (LDLR mRNA [5]; BBR 20 μg/ml)?
The value was 3 fold.

What about the “increase of intracellular fluorescent intensity” value (HepG2 cells) of the same molecule?
The value was about 2 fold.

And the “LDLR mRNA expression (northern blot)” value (LDLR mRNA [6])?
The value was “strong inducers”.

And the body weights [7]?
The body weights was “unchanged”.

And the “levels of phosphorylated ERK in liver” value (ERK [8])?
Its value is “greatly elevated”.

And the “hepatic TC, % of control” value [9]?
The value was 68.7 % of control.

And the “hepatic TG, % of control” value [9]?
The value was 78.3 % of control.

And the “increase in BBR uptake in MDR1 siRNA transfected cells compared to mock transfected cells” value ([10]; human, 2 h, 15 μg/ml)?
The value was 49%.

And the “increase in fluorescent intensity on blocking MDR1 activity with VRMP” value ([10]; human, 2 h, 15 μg/ml)?
The value was 49%.

Which LDLR promoter activity (LDLR promoter; HepG2, BBR or CND 15 μg/ml) does the source give for `COc1ccc2c(c1OC)CN1CCc3cc4c(cc3[C@H]1C2)OCO4` [CND, canadine] here?
The LDLR promoter activity was “not affected at all”.

And the DNA binding (DNA)?
Its DNA binding is “does not bind to DNA”.

And the ERK phosphorylation (ERK [3])?
The ERK phosphorylation was “attributable to CND and BBR”.

And the “LDLR mRNA increase compared to control under transcriptional suppression” value (LDLR mRNA [4])?
The value was about 2.5 fold.

And the “dose-dependent effect on LDLR mRNA expression, CND compared with BBR” value (LDLR mRNA [5]; similar concentration ranges, northern blot and real-time RT-PCR)?
The value was “greater activity than BBR; also recorded: more potent inducer of LDLR expression”.

And the “LDLR mRNA expression (northern blot)” value (LDLR mRNA [6])?
The value was “strong inducers”.

And the “fold increase in activity on LDLR mRNA in the presence of VRMP vs absence” value (LDLR mRNA [11]; HepG2, 0.6 μM VRMP, 8 h, 3 separate experiments, mean±S.D.)?
The value was 0.82±0.34 fold.

And the “effect of MDR1 siRNA transfection on activity in elevation of LDLR mRNA level” value (LDLR mRNA [11]; HepG2, siRNA 3 days, drug 6 h)?
Its value is “not affected”.

What about the “toxicity to liver cells (cell survival, MTT), CND compared with BBR” value (liver cells) of the same molecule?
The value was “less toxic to liver cells than berberine (BBR)”.

What about the MDR1 substrate status ([10]; inferred from lack of VRMP effect on activity in HepG2) of the same molecule?
Its MDR1 substrate status is “not a substrate of MDR1”.

What about the “efflux of DiOC2(3)” value (MDR1) of the same molecule?
The value was “no inhibitory effect”.

Which “LDLR mRNA expression (northern blot)” value (LDLR mRNA [6]) does the source give for `COc1ccc2c(c1OC)C(=O)O[C@@H]2[C@H]1c2cc3c(cc2CCN1C)OCO3` [HDT, β-hydrastine] here?
The value was “no effects”.

With `CN1CCc2cc3c(cc2C1O)OCO3` (stereo not shown) [HDTN, hydrastinine] as the molecule, how does the “LDLR mRNA expression (northern blot)” value (LDLR mRNA [6]) read?
The value was “no effects”.

What does the source list for `COc1cc2c(cc1OC)-c1cc3ccc(OC)c(OC)c3c[n+]1CC2` [PMT, palmatine]?
DNA binding (DNA): strong DNA binding affinities; LDLR mRNA expression (northern blot) (LDLR mRNA [6]): no regulatory activity on LDLR expression; also recorded: no effects

For `COc1ccc(CCN(C)CCCC(C#N)(c2ccc(OC)c(OC)c2)C(C)C)cc1OC` (stereo not shown) [VRMP, verapamil], which “effect of VRMP itself on the LDLR mRNA level” value (LDLR mRNA [11]) is on record?
The value was “little effect”.

B1: OM: cytokine oncostatin M, known activator of the LDLR promoter (protein, UniProt P13725 26-221, looked up)
Oncostatin-M: AAIGSCSKEYRVLLGQLQKQTDLMQDTSRLLDPYIRIQGLDVPKLREHCRERPGAFPSEETLRGLGRRGFLQTLNATLGCVLHRLADLEQRLPKAQDLERSGLNIEDLEKLQMARPNILGLRNNIYCMAQLLDNSDTAEPTKAGRGASQPPTPTPASDAFQRKLEGCRFLHGYHRFMHSVGRVFSKWGESPNRSRR
Which LDLR promoter activity (LDLR promoter; HepG2, OM 50 ng/ml) does the source give for B1 here?
Its LDLR promoter activity is “strongly elevated”.
